From patent US11033539B2, “Compounds of formulas (VII), (VIII), (IX), (XI), (XII), (XIII), and (XIV) as muscarinic receptor 4(M4) antagonists for treating neurological diseases” (Neurocrine Biosciences, Inc., priority 2015, dated 2021) come the findings set out here.

For the test, the target named is human M4 receptor (Homo sapiens (Human), UniProt P08173). Description: Radioligand (tritiated N-methylscopolamine) binding assay, M4. To be noted: Ki against the M4 receptor; membranes from CHO cells expressing human M4; tritiated N-methylscopolamine 1.5 nM; read-out: Ki. The essentials: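 Membranes came from recombinant CHO cells expressing human muscarinic subtypes and were incubated with compound and [3H]NMS (1.5 nM) in HEPES/NaCl/MgCl2/EDTA buffer, pH 7.4, at 37° C for 90 min. Twelve-point dose-response (printed 10–[…]). Filter-bound radioactivity was counted and Ki values derived.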
Sequence of human M4 receptor (P08173 whole entry): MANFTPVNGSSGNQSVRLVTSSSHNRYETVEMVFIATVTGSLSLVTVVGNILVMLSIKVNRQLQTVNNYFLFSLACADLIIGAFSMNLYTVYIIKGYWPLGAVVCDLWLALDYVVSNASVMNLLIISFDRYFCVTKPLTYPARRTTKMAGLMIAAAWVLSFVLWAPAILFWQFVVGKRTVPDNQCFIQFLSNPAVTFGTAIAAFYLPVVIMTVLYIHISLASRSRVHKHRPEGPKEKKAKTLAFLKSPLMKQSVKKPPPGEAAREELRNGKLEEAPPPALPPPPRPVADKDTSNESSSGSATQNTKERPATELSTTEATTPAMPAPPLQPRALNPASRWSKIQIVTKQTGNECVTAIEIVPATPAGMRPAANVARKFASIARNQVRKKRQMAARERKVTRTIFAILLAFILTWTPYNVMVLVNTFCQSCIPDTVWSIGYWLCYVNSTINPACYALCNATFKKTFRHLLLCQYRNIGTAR

Consider `CC1(C(=O)NCCC2CCN(Cc3ccccc3)CC2)CCN(c2cccc(OC(F)(F)F)c2)CC1` [10-25, N-[2-(1-benzylpiperidin-4-yl)ethyl]-4-methyl-1-[3-(trifluoromethoxy)phenyl]piperidine-4-carboxamide], for which the inhibition constant Ki (in general, the dissociation constant of the complex between target and ligand, obtained from inhibition or displacement) was 10 to 100 nM. For the molecule `O=C(CC1CCN(Cc2ccccc2)CC1)NCC1CCN(c2cccc(OC(F)(F)F)c2)CC1` [10-26, 2-(1-benzylpiperidin-4-yl)-N-({1-[3-(trifluoromethoxy)phenyl]piperidin-4-yl}methyl)acetamide], the Ki is 100 to 1000 nM.

`O=C(NCCC1CCN(Cc2ccccc2)CC1)C1CCN(c2ccc(Cl)nc2)CC1` [10-27, N-[2-(1-benzylpiperidin-4-yl)ethyl]-1-(6-chloropyridin-3-yl)piperidine-4-carboxamide]: the Ki lay within 100 to 1000 nM. With `COc1ccc(N2CCC(C(=O)NCCC3CCN(Cc4ccccc4)CC3)CC2)nc1` [10-28, N-[2-(1-benzylpiperidin-4-yl)ethyl]-1-(5-methoxypyridin-2-yl)piperidine-4-carboxamide], the Ki lay within 100 to 1000 nM.

`COc1cc(OC(F)(F)F)cc(N2CCC(C(=O)NCCC3CCN(Cc4ccccc4)CC3)CC2)c1` [10-29, N-[2-(1-benzylpiperidin-4-yl)ethyl]-1-[3-methoxy-5-(trifluoromethoxy)phenyl]piperidine-4-carboxamide]: the Ki is 10 to 100 nM. To `O=C(NCCC1CCN(Cc2ccccc2)CC1)C1CCN(c2nccc(C(F)(F)F)n2)CC1` [10-30, N-[2-(1-benzylpiperidin-4-yl)ethyl]-1-[4-(trifluoromethyl)pyrimidin-2-yl]piperidine-4-carboxamide] belongs 10 to 100 nM; to `CC1(C(=O)NCCC2CCN(Cc3ccccc3)CC2)CCN(c2ccc(OC(F)(F)F)cc2)CC1` [10-31, N-[2-(1-benzylpiperidin-4-yl)ethyl]-4-methyl-1-[4-(trifluoromethoxy)phenyl]piperidine-4-carboxamide], 10 to 100 nM; to `O=C(NCCC1CCN(Cc2ccccc2)CC1)C1CCN(c2cc(C(F)(F)F)ccn2)CC1` [10-32, N-[2-(1-benzylpiperidin-4-yl)ethyl]-1-[4-(trifluoromethyl)pyridin-2-yl]piperidine-4-carboxamide], 10 to 100 nM.

For the molecule `COc1ccc(N2CCC(C(=O)NCCC3CCN(Cc4ccccc4)CC3)CC2)cc1OC(F)(F)F` [10-33, N-[2-(1-benzylpiperidin-4-yl)ethyl]-1-[4-methoxy-3-(trifluoromethoxy)phenyl]piperidine-4-carboxamide], the Ki was in the range of 10 to 100 nM. In the case of `O=C(NCCC1CCN(Cc2ccccc2)CC1)C1CCN(c2ccc(OC(F)(F)F)nc2)CC1` [10-34, N-[2-(1-benzylpiperidin-4-yl)ethyl]-1-[6-(trifluoromethoxy)pyridin-3-yl]piperidine-4-carboxamide], the Ki was in the range of 10 to 100 nM.

As to `O=C(NCCC1CCN(Cc2ccccc2)CC1)C1CCN(c2ccc(F)cc2)CC1` [10-35, N-[2-(1-benzylpiperidin-4-yl)ethyl]-1-(4-fluorophenyl)piperidine-4-carboxamide], the Ki was in the range of 10 to 100 nM.

As to `N#Cc1cc(N2CCC(O)(C(=O)NCCC3CCN(Cc4ccccc4)CC3)CC2)ccc1OC(F)(F)F` [10-36, N-[2-(1-benzylpiperidin-4-yl)ethyl]-1-[3-cyano-4-(trifluoromethoxy)phenyl]-4-hydroxypiperidine-4-carboxamide], the Ki was in the range of 10 to 100 nM. As to `O=C(NCCC1CCN(Cc2ccccc2)CC1)C1CCN(c2ccc(OC(F)(F)F)cc2F)CC1` [10-37, N-[2-(1-benzylpiperidin-4-yl)ethyl]-1-[2-fluoro-4-(trifluoromethoxy)phenyl]piperidine-4-carboxamide], the inhibition constant Ki lay in the range of 10 to 100 nM. As to `COC1(C(=O)NCCC2CCN(Cc3ccccc3)CC2)CCN(c2ccc(OC(F)(F)F)cc2)CC1` [10-38, N-[2-(1-benzylpiperidin-4-yl)ethyl]-4-methoxy-1-[4-(trifluoromethoxy)phenyl]piperidine-4-carboxamide], the Ki was in the range of 10 to 100 nM. The same measure for `COc1ccc(N2CCC(C(=O)NCCC3CCN(Cc4ccccc4)CC3)CC2)cc1F` [10-39, N-[2-(1-benzylpiperidin-4-yl)ethyl]-1-(3-fluoro-4-methoxyphenyl)piperidine-4-carboxamide]: 10 to 100 nM. Take `O=C(NCCC1CCN(Cc2ccccc2)CC1)C1(O)CCN(c2cc(F)c(F)c(F)c2)CC1` [10-40, N-[2-(1-benzylpiperidin-4-yl)ethyl]-4-hydroxy-1-(3,4,5-trifluorophenyl)piperidine-4-carboxamide]: the Ki lay within 10 to 100 nM. Turning to `O=C(NCCC1CCN(Cc2ccccc2)CC1)C1(O)CCN(c2ccc(OC(F)(F)F)c(F)c2)CC1` [10-41, N-[2-(1-benzylpiperidin-4-yl)ethyl]-1-[3-fluoro-4-(trifluoromethoxy)phenyl]-4-hydroxypiperidine-4-carboxamide], the Ki fell in the range of 10 to 100 nM.

Take `O=C(NCCC1CCN(Cc2ccccc2)CC1)C1CCN(c2cccc3c2OC(F)(F)O3)CC1` [10-45, N-[2-(1-benzylpiperidin-4-yl)ethyl]-1-(2,2-difluoro-2H-1,3-benzodioxol-4-yl)piperidine-4-carboxamide]: the Ki is 10 to 100 nM. For `N#Cc1cc(OC(F)(F)F)cc(N2CCC(O)(C(=O)NCCC3CCN(Cc4ccccc4)CC3)CC2)c1` [10-46, N-[2-(1-benzylpiperidin-4-yl)ethyl]-1-[3-cyano-5-(trifluoromethoxy)phenyl]-4-hydroxypiperidine-4-carboxamide], the Ki was in the range of 10 to 100 nM. On to `COC1(C(=O)NCCC2CCN(Cc3ccccc3)CC2)CCN(c2cc(C(F)(F)F)ccn2)CC1` [10-47, N-[2-(1-benzylpiperidin-4-yl)ethyl]-4-methoxy-1-[4-(trifluoromethyl)pyridin-2-yl]piperidine-4-carboxamide], for which the Ki lay within 10 to 100 nM. The same measure for `COC1(C(=O)NCCC2CCN(Cc3ccccc3)CC2)CCN(c2ccc(C(F)(F)F)cn2)CC1` [10-48, N-[2-(1-benzylpiperidin-4-yl)ethyl]-4-methoxy-1-[5-(trifluoromethyl)pyridin-2-yl]piperidine-4-carboxamide]: 100 to 1000 nM; for `O=C(NCCC1CCN(Cc2ccccc2)CC1)[C@@H]1CCN(c2cccc(OC(F)(F)F)c2)C1` [10-49, (3R)-N-[2-(1-benzylpiperidin-4-yl)ethyl]-1-[3-(trifluoromethoxy)phenyl]pyrrolidine-3-carboxamide]: 100 to 1000 nM. Regarding `N#Cc1ccc(N2CCC(C(=O)NCCC3CCN(Cc4ccccc4)CC3)CC2)c(F)c1` [10-50, N-[2-(1-benzylpiperidin-4-yl)ethyl]-1-(4-cyano-2-fluorophenyl)piperidine-4-carboxamide], the inhibition constant Ki is 100 to 1000 nM. With `N#Cc1cc(N2CCC(O)(C(=O)NCCC3CCN(Cc4ccccc4)CC3)CC2)ccc1F` [10-51, N-[2-(1-benzylpiperidin-4-yl)ethyl]-1-(3-cyano-4-fluorophenyl)-4-hydroxypiperidine-4-carboxamide], the Ki is 100 to 1000 nM. With `O=C(NCCC1CCN(Cc2ccccc2)CC1)[C@H]1CCN(c2cccc(OC(F)(F)F)c2)C1` [10-52, (3S)-N-[2-(1-benzylpiperidin-4-yl)ethyl]-1-[3-(trifluoromethoxy)phenyl]pyrrolidine-3-carboxamide], the Ki fell in the range of 100 to 1000 nM. For `COc1cccc(N2CCC(C(=O)NCCC3CCN(Cc4ccccc4)CC3)CC2)c1` [10-53, N-[2-(1-benzylpiperidin-4-yl)ethyl]-1-(3-methoxyphenyl)piperidine-4-carboxamide], the inhibition constant (Ki) lay within 100 to 1000 nM.
